# From ChEMBL document CHEMBL5512645, “A novel antimicrobial peptide with broad-spectrum and exceptional stability derived from the natural peptide Brevicidine” (Eur J Med Chem, 2024)
# Bridge positions count the residues as written; N and C are the ends. Square brackets hold non-standard residues; d marks the D form. Peptide text beside a SMILES is read from it. * marks the point of attachment. Lauroyl = CCCCCCCCCCCC(=O)*; Decanoyl = CCCCCCCCCC(=O)*; dOrn = NCCC[C@@H](N)C(=O)O; Octanoyl = CCCCCCCC(=O)*; Orn = NCCC[C@H](N)C(=O)O
# Tests used:
# [1] = system: Escherichia coli; assay: Antibacterial activity against Escherichia coli ATCC 25922 incubated for 18 to 24 hrs by broth microdilution method; type: functional; conditions: time 18-24 hrs
# [2] = system: Acinetobacter baumannii; assay: Antibacterial activity against Acinetobacter baumannii ATCC 19606 incubated for 18 to 24 hrs by broth microdilution method; type: functional; conditions: time 18-24 hrs
# [3] = system: Enterococcus faecalis; assay: Antibacterial activity against Enterococcus faecalis ATCC 29212 incubated for 18 to 24 hrs by broth microdilution method; type: functional; conditions: time 18-24 hrs
# [4] = system: Staphylococcus epidermidis; assay: Antibacterial activity against Staphylococcus epidermidis ATCC 12228 incubated for 18 to 24 hrs by broth microdilution method; type: functional; conditions: time 18-24 hrs
# [5] = system: Bacillus subtilis; assay: Antibacterial activity against Bacillus subtilis ATCC 23857 incubated for 18 to 24 hrs by broth microdilution method; type: functional; conditions: time 18-24 hrs
# [6] = system: Staphylococcus aureus; assay: Antibacterial activity against Staphylococcus aureus ATCC 25923 incubated for 18 to 24 hrs by broth microdilution method; type: functional; conditions: time 18-24 hrs
# [7] = system: Pseudomonas aeruginosa; assay: Antibacterial activity against Pseudomonas aeruginosa ATCC 27853 incubated for 18 to 24 hrs by broth microdilution method; type: functional; conditions: time 18-24 hrs
# [8] = system: Klebsiella pneumoniae; assay: Antibacterial activity against Klebsiella pneumoniae ATCC 700603 incubated for 18 to 24 hrs by broth microdilution method; type: functional; conditions: time 18-24 hrs
# [9] = system: Erythrocyte; assay: Hemolytic activity in mouse red blood cell assessed as hemolysis incubated for 1 hr; type: toxicity, cell-based
Structure (SMILES),MIC [1],MIC [2],MIC [3],MIC [4],MIC [5],MIC [6],MIC [7],MIC [8],MHC [9]
CCC(C)CCC(=O)N[C@H](CC(N)=O)C(=O)N[C@H](Cc1ccc(O)cc1)C(=O)N[C@H](Cc1c[nH]c2ccccc12)C(=O)N[C@H](CCCCN)C(=O)N[C@@H](CCCCN)C(=O)NCC(=O)N[C@H](CCCCN)C(=O)N[C@@H](Cc1c[nH]c2ccccc12)C(=O)N[C@@H]1C(=O)N[C@@H]([C@@H](C)CC)C(=O)NCC(=O)N[C@@H](CO)C(=O)O[C@@H]1C (stereo not given in full),4 µM,8 µM,64 µM,32 µM,32 µM,64 µM,4 µM,8 µM,128 µM
CCC(C)CCC(=O)N[C@H](CC(N)=O)C(=O)N[C@H](Cc1ccc(O)cc1)C(=O)N[C@H](Cc1c[nH]c2ccccc12)C(=O)N[C@H](CCN)C(=O)N[C@@H](CCN)C(=O)NCC(=O)N[C@H](CCN)C(=O)N[C@@H](Cc1c[nH]c2ccccc12)C(=O)N[C@@H]1C(=O)N[C@@H]([C@@H](C)CC)C(=O)NCC(=O)N[C@@H](CO)C(=O)O[C@@H]1C (stereo not given in full),4 µM,32 µM,64 µM,8 µM,16 µM,64 µM,4 µM,8 µM,128 µM
CCCCCCCCCC(=O)N[C@H](CCCN)C(=O)N[C@H](Cc1ccc(O)cc1)C(=O)N[C@H](Cc1c[nH]c2ccccc12)C(=O)N[C@H](CCCN)C(=O)N[C@@H](CCCN)C(=O)NCC(=O)N[C@H](CCCN)C(=O)N[C@@H](Cc1c[nH]c2ccccc12)C(=O)N[C@@H]1C(=O)N[C@@H]([C@@H](C)CC)C(=O)NCC(=O)N[C@@H](CO)C(=O)O[C@@H]1C,8 µM,16 µM,64 µM,16 µM,16 µM,32 µM,8 µM,16 µM,128 µM
CCC(C)CCC(=O)N[C@H](CCCN)C(=O)N[C@H](Cc1ccc(O)cc1)C(=O)N[C@H](Cc1c[nH]c2ccccc12)C(=O)N[C@H](CCCN)C(=O)N[C@@H](CCCN)C(=O)N[C@@H](CCCN)C(=O)N[C@H](CCCN)C(=O)N[C@@H](Cc1c[nH]c2ccccc12)C(=O)N[C@@H]1C(=O)N[C@@H]([C@@H](C)CC)C(=O)NCC(=O)N[C@@H](CO)C(=O)O[C@@H]1C (stereo not given in full),8 µM,16 µM,> 128 µM,16 µM,4 µM,32 µM,1 µM,2 µM,128 µM
CCCCCCCCCC(=O)N[C@H](CC(N)=O)C(=O)N[C@H](Cc1ccc(O)cc1)C(=O)N[C@H](Cc1c[nH]c2ccccc12)C(=O)N[C@H](CCCN)C(=O)N[C@@H](CCCN)C(=O)NCC(=O)N[C@H](CCCN)C(=O)N[C@@H](Cc1c[nH]c2ccccc12)C(=O)N[C@@H]1C(=O)N[C@@H]([C@@H](C)CC)C(=O)NCC(=O)N[C@@H](CO)C(=O)O[C@@H]1C (Decanoyl-[dN][dY][dW][dOrn][Orn]G[dOrn]WTIGS; ester 9-C),2 µM,2 µM,32 µM,4 µM,4 µM,16 µM,2 µM,2 µM,8 µM
CCCCCCCCCCCC(=O)N[C@H](CC(N)=O)C(=O)N[C@H](Cc1ccc(O)cc1)C(=O)N[C@H](Cc1c[nH]c2ccccc12)C(=O)N[C@H](CCCN)C(=O)N[C@@H](CCCN)C(=O)NCC(=O)N[C@H](CCCN)C(=O)N[C@@H](Cc1c[nH]c2ccccc12)C(=O)N[C@@H]1C(=O)N[C@@H]([C@@H](C)CC)C(=O)NCC(=O)N[C@@H](CO)C(=O)O[C@@H]1C (Lauroyl-[dN][dY][dW][dOrn][Orn]G[dOrn]WTIGS; ester 9-C),8 µM,4 µM,16 µM,4 µM,4 µM,16 µM,2 µM,8 µM,4 µM
CCCCCCCC(=O)N[C@H](CC(N)=O)C(=O)N[C@H](Cc1ccc(O)cc1)C(=O)N[C@H](Cc1c[nH]c2ccccc12)C(=O)N[C@H](CCCN)C(=O)N[C@@H](CCCN)C(=O)NCC(=O)N[C@H](CCCN)C(=O)N[C@@H](Cc1c[nH]c2ccccc12)C(=O)N[C@@H]1C(=O)N[C@@H]([C@@H](C)CC)C(=O)NCC(=O)N[C@@H](CO)C(=O)O[C@@H]1C (Octanoyl-[dN][dY][dW][dOrn][Orn]G[dOrn]WTIGS; ester 9-C),2 µM,4 µM,64 µM,16 µM,8 µM,32 µM,2 µM,4 µM,64 µM
CCC(C)CCC(=O)N[C@H](CC(N)=O)C(=O)N[C@H](Cc1ccc(-c2ccccc2)cc1)C(=O)N[C@H](Cc1c[nH]c2ccccc12)C(=O)N[C@H](CCCN)C(=O)N[C@@H](CCCN)C(=O)NCC(=O)N[C@H](CCCN)C(=O)N[C@@H](Cc1c[nH]c2ccccc12)C(=O)N[C@@H]1C(=O)N[C@@H]([C@@H](C)CC)C(=O)NCC(=O)N[C@@H](CO)C(=O)O[C@@H]1C (mixture of isomers),16 µM,8 µM,32 µM,16 µM,8 µM,16 µM,8 µM,16 µM,8 µM
CCC(C)CCC(=O)N[C@H](CC(N)=O)C(=O)N[C@H](C)C(=O)N[C@H](Cc1c[nH]c2ccccc12)C(=O)N[C@H](CCCN)C(=O)N[C@@H](CCCN)C(=O)NCC(=O)N[C@H](CCCN)C(=O)N[C@@H](Cc1c[nH]c2ccccc12)C(=O)N[C@@H]1C(=O)N[C@@H]([C@@H](C)CC)C(=O)NCC(=O)N[C@@H](CO)C(=O)O[C@@H]1C (mixture of isomers),16 µM,32 µM,> 128 µM,8 µM,16 µM,> 128 µM,2 µM,32 µM,128 µM
CCC(C)CCC(=O)N[C@H](CC(N)=O)C(=O)N[C@H](Cc1ccc(O)cc1)C(=O)N[C@H](Cc1c[nH]c2ccccc12)C(=O)N[C@H](CN)C(=O)N[C@@H](CN)C(=O)NCC(=O)N[C@H](CN)C(=O)N[C@@H](Cc1c[nH]c2ccccc12)C(=O)N[C@@H]1C(=O)N[C@@H]([C@@H](C)CC)C(=O)NCC(=O)N[C@@H](CO)C(=O)O[C@@H]1C (mixture of isomers),32 µM,32 µM,> 128 µM,16 µM,32 µM,128 µM,4 µM,16 µM,128 µM
CCC(C)CCC(=O)N[C@H](CC(N)=O)C(=O)N[C@H](Cc1ccc2ccccc2c1)C(=O)N[C@H](Cc1c[nH]c2ccccc12)C(=O)N[C@H](CCCN)C(=O)N[C@@H](CCCN)C(=O)NCC(=O)N[C@H](CCCN)C(=O)N[C@@H](Cc1c[nH]c2ccccc12)C(=O)N[C@@H]1C(=O)N[C@@H]([C@@H](C)CC)C(=O)NCC(=O)N[C@@H](CO)C(=O)O[C@@H]1C (mixture of isomers),8 µM,8 µM,32 µM,16 µM,8 µM,32 µM,4 µM,8 µM,8 µM
CCC(C)CCC(=O)N[C@H](CC(N)=O)C(=O)N[C@H](Cc1ccc(C(C)(C)C)cc1)C(=O)N[C@H](Cc1c[nH]c2ccccc12)C(=O)N[C@H](CCCN)C(=O)N[C@@H](CCCN)C(=O)NCC(=O)N[C@H](CCCN)C(=O)N[C@@H](Cc1c[nH]c2ccccc12)C(=O)N[C@@H]1C(=O)N[C@@H]([C@@H](C)CC)C(=O)NCC(=O)N[C@@H](CO)C(=O)O[C@@H]1C (mixture of isomers),16 µM,8 µM,32 µM,16 µM,8 µM,16 µM,8 µM,16 µM,16 µM
CCC(C)CCC(=O)N[C@H](CC(N)=O)C(=O)N[C@H](Cc1ccc(O)cc1)C(=O)N[C@H](Cc1c[nH]c2ccccc12)C(=O)N[C@H](CCCNC(=N)N)C(=O)N[C@@H](CCCNC(=N)N)C(=O)NCC(=O)N[C@H](CCCNC(=N)N)C(=O)N[C@@H](Cc1c[nH]c2ccccc12)C(=O)N[C@@H]1C(=O)N[C@@H]([C@@H](C)CC)C(=O)NCC(=O)N[C@@H](CO)C(=O)O[C@@H]1C (mixture of isomers),4 µM,8 µM,64 µM,2 µM,16 µM,64 µM,4 µM,4 µM,128 µM
CCC(C)CCC(=O)N[C@H](CC(N)=O)C(=O)N[C@H](Cc1ccc(C)cc1)C(=O)N[C@H](Cc1c[nH]c2ccccc12)C(=O)N[C@H](CCCN)C(=O)N[C@@H](CCCN)C(=O)NCC(=O)N[C@H](CCCN)C(=O)N[C@@H](Cc1c[nH]c2ccccc12)C(=O)N[C@@H]1C(=O)N[C@@H]([C@@H](C)CC)C(=O)NCC(=O)N[C@@H](CO)C(=O)O[C@@H]1C (mixture of isomers),8 µM,8 µM,64 µM,16 µM,8 µM,32 µM,4 µM,8 µM,32 µM
CCC(C)CCC(=O)N[C@H](CC(N)=O)C(=O)N[C@H](Cc1ccc(N)cc1)C(=O)N[C@H](Cc1c[nH]c2ccccc12)C(=O)N[C@H](CCCN)C(=O)N[C@@H](CCCN)C(=O)NCC(=O)N[C@H](CCCN)C(=O)N[C@@H](Cc1c[nH]c2ccccc12)C(=O)N[C@@H]1C(=O)N[C@@H]([C@@H](C)CC)C(=O)NCC(=O)N[C@@H](CO)C(=O)O[C@@H]1C (mixture of isomers),8 µM,32 µM,> 128 µM,64 µM,16 µM,128 µM,4 µM,16 µM,128 µM
